“Also recorded” adds a separate entry of the source. Where two headings read alike, the source gives them in different places.

Assay [1] relates to normal human peripheral blood mononuclear leukocytes. The assay can be described thus: cells. The format is cell-based.
In assay [2] the test system is allogeneic immune response in popliteal lymph node. The assay can be described thus: In vivo assay of immunosuppressive activity: allogeneic immune response in draining popliteal lymph node after footpad injection. On the set-up: species or system C3H mice. Conditions: for lymph node mass, net increase / lymph node mass, stimulated / lymph node mass, unstimulated: day 4; for lymph node mass, stimulated: left footpad; for lymph node mass, unstimulated: right footpad.
Text: In vivo Assay of Immunosuppressive Activity: Footpad injection of the synthetic ganglioside derivatives being studied and of the stimulant of the cellular immune response (allogeneic cells), is subsequently followed by harvest of the popliteal node and assessment of the node size, cell number, specific proliferation response and generation of specific cytotoxicity.
Mice: C3H (H-2^K) and BALB/c (H-2^d) mice are obtained at 6 weeks of age and used in these experiments at 7-12 weeks of age. The animals are murine virus free strains purchased from Charles River, Wilmington, Mass.
Preparation of stimulator cells: Spleens are removed aseptically and immediately placed in murine complete media [RPMI 1640 w/o L-glutamine (Whittaker Bioproducts, Walkersville, Md.) supplemented with 10% FCS; 1% of MEM non-essential amino acids (Cellgro), sodium pyruvate, L-glutamine, Penicillin 50 U/ml/Streptomycin 50 μg/ml and 10 mM Hepes Buffer (Whittaker Bioproducts)] then transferred to a 60×10 mm petri dish. A sterile single cell suspension is prepared by gently pressing the spleen onto a cell dissociation sieve (Sigma). Mononuclear cells are isolated by Ficoll-Hypaque density gradient separation, followed by lysis of erythrocytes (ACK lysing buffer pH 7.4). The cells are washed and their viability determined by trypan blue exclusion. Allogeneic (BALB/c) splenocytes are diluted to the appropriate concentration in saline and are injected into the footpad of C3H mice together with the synthetic ganglioside derivatives to be tested.
Preparation of synthetic ganglioside derivatives: Synthetic ganglioside derivatives are aliquoted in HPLC-grade chloroform:methanol (1:1), and dried in glass microvials. The synthetic ganglioside derivatives are then resuspended for injection in 0.9% NaCl, sonicated for 2 min in a Branson water bath sonicator.
Injections: Spleen cells or tumor cells and the synthetic ganglioside derivatives being studied are injected into the left hind footpad in a total volume of 30 μl.
Isolation of popliteal lymph nodes: Primed animals are killed by cervical dislocation on day 4, the popliteal lymph node draining the left and right footpads are removed aseptically, trimmed free of excess fat, weighted and placed on ice in tubes containing tissue culture medium. The nodes are then teased with a flat end of a 3 ml syringe to obtain a single cell suspension, which is washed in complete murine media containing 0.1% 2mercaptoethanol (Gibco, New York). The cells are then quantified and their viability determined by trypan blue exclusion. The cell concentration is adjusted to 2×10^6 cells/ml.
Cell cultures: 2×10^5 lymph node cells in 100 μl are cultured for 18 hours in complete medium with 0.5 μC ^3 H-thymidine incorporation quantified by β-scintillation counting as a measure of in vivo lymphocyte activation (50).
In this model, the immune response in a local microenvironment directed against allogeneic cells is assessed. Allogeneic (C3H mice) spleen cells were injected into the footpad of BALB/c mice and the draining popliteal lymph nodes were removed from the sacrificed mice four days later.

Where [3] appears, read: Homo sapiens, Leukocyte, 2.5 μM, read-out: Inhibition.
The mark [4] stands for this setting: Homo sapiens, Leukocyte, 5.0 μM, read-out: Inhibition.
The mark [5] stands for this setting: Table 2, mean ± SD of five mice, dialkyl GM3 11 μg coinjected, CSA 24 mg/kg/day i.p. × 4 days.
[6] abbreviates: Homo sapiens, Leukocyte, read-out: inhibition of human lymphoproliferation.
Setting [7] is: Table 4, mean ± SD of five mice, ganglioside 10 nmol coinjected, CSA 24 mg/kg/dose i.p. × 4 doses.
The mark [8] stands for this setting: Table 1, mean ± SD of five mice, GM3 n=1 10 nmol coinjected, cyclosporin A 24 mg/kg/dose i.p. × 4 doses.

For `CCCCCCCCCCCCCCC(CCCCCCCCCCCCCC)COC1OC(CO)C(OC2OC(CO)C(O)C(OC3(C(=O)O)CC(O)C(NC(C)=O)C(C(O)C(O)CO)O3)C2O)C(O)C1O` [dialkyl GM3, 2-(Tetradecylhexadecyl) O-(5-acetamido-3,5-dideoxy-D-glycero-D-galacto-2-nonulopyranosylonic acid)-(2→3)-O-β-D-galactopyranosyl-(1→4)-β-D-glucopyranoside], the “immunosuppressive activity in vitro, in words” value in assay [1] is listed as “marked immunosuppressive activity; also recorded: higher degree of inhibition of dialkyl GM3 than that of GM3 is readily observed”. Besides, the “potency relative to GM3 d18:1-C18:0” value in assay [1] is “four-fold”. Further, the “[^3 H] Thymidine Uptake” value in assay [1] (2.5 μM) was 0.7 CPM × 10^-3; in assay [1] (5.0 μM) it was 0.3 CPM × 10^-3. For the same compound, the IC50 in assay [1] (Homo sapiens, Leukocyte, 0-10 μM, read-out: ID50, inhibition of human lymphoproliferation) is 200 nM. In addition, the inhibition at 2.5 µM in assay [1] (setting [3]) was 93%. Further, in assay [1] (setting [4]), the inhibition at 5 µM was determined as 97%. In addition, the IC90 in assay [1] (Homo sapiens, Leukocyte, read-out: concentration at which 90% inhibition was observed, 0-20 μM) is less than 7000 nM. Besides, the “[^3 H]thymidine uptake (spontaneous lymphoproliferation)” value in assay [2] amounted to 317 ± 45 cpm; in assay [2] (Table 2, 0.5 × 10^5 cells, mean ± SEM of three cultures) it was 107 ± 29 cpm; in assay [2] (Table 2, 1 × 10^5 cells, mean ± SEM of three cultures), 152 ± 15 cpm. Moreover, in assay [2] (2×10^5 cells), the “[^3 H]thymidine uptake relative to control group” value is 20%. The “lymph node mass, net increase” value in assay [2] (Table 2, dialkyl GM3 11 μg coinjected, CSA 24 mg/kg/day i.p. × 4 days) was found to be 0.45 mg. For the same compound, in assay [2] (setting [5]), the “lymph node mass, stimulated” value is reported as 1.86 ± 0.25 mg. Moreover, in assay [2] (setting [5]), the “lymph node mass, unstimulated” value was 1.41 ± 0.17 mg. Moreover, in assay [2] (Table 2, dialkyl GM3 11 μg, CSA 24 mg/kg/day i.p. × 4 days), the “lymphocytes (total mononuclear leukocytes recovered from five stimulated popliteal lymph nodes)” value is reported as 0.83 ×10^7. Besides, the “suppression of the immune response / proliferation, in words” value in assay [2] (Table 2, three cell densities for proliferation) is “marked suppression of the immune response; also recorded: markedly suppresses the proliferation”. The “lymphocyte number as fraction of control group” value in assay [2] (control group 2.3×10^7 cells) is recorded as ≤ 1/3. Also, the “net increase of lymph node mass” value in assay [2] (dialkyl GM3 10 nmol or 11 μg/mouse coinjected, cyclosporin A systemic) stood at 0.45 mg. Moreover, in assay [2] (five nodes from five mice), the “lymphocyte (mononuclear-leukocyte) number” value is given as 0.8 ×10^7.

Turning to `CCCCCCCCCCCCCC=CC(O)C(COC1(C(=O)O)CC(O)C(NC(C)=O)C(C(O)C(O)CO)O1)NC(=O)CCCCCCCCCCCCCCCCC` [αGM5, (2S,3R,4E)-1-O-(5-acetamido-3,5-dideoxy-D-glycero-α- and β-D-galacto-f2-nonulopyranosylonicacid)-2-octadecanamido-4-octadecene-1,3-diol], the “immunosuppressive activity in vitro, in words” value in assay [1] is recorded as “potent immunosuppressive agents”. In assay [1] (2.5 μM), the “[^3 H] Thymidine Uptake” value amounted to 0.1 CPM × 10^-3. Also, the “[^3 H] Thymidine Uptake” value in assay [1] (5.0 μM) is given as 0.1 CPM × 10^-3. Moreover, in assay [1] (setting [3]), the inhibition at 2.5 µM amounted to 99%. The inhibition at 5 µM in assay [1] (setting [4]) amounted to 99%. The IC90 in assay [1] (Homo sapiens, Leukocyte, read-out: ID90) is approximately 2500 nM. Besides, in assay [1] (setting [6]), the inhibition at 0.0025 µM is 99% and the inhibition at 0.005 µM stood at 99%. Moreover, in assay [2] (Table 4, ganglioside 10 nmol coinjected, CSA 24 mg/kg/dose i.p. × 4 doses), the “lymph node mass, net increase” value is recorded as 0.58 mg. Besides, in assay [2] (setting [7]), the “lymph node mass, stimulated” value is recorded as 1.40 ± 0.22 mg and the “lymph node mass, unstimulated” value is 0.82 ± 0.26 mg. For the same compound, in assay [2] (αGM5, compared to systemically administered cyclosporin A, Table 4), the “in vivo immunosuppression, in words” value is recorded as “highly immunosuppressive in vivo”. Moreover, the “reduction in cellular immune response (increase in lymph mass caused by in vivo allostimulation)” value in assay [2] (αGM5, Table 4) is listed as 2/3.

On to `CCCCCCCCCCCCCC=CC(O)C(COC1OC(CO)C(OC2OC(CO)C(O)C(OC3(C(=O)O)CC(O)C(NC(C)=O)C(C(O)C(O)CO)O3)C2O)C(O)C1O)NC(C)=O` (stereo not drawn) [GM3 n=1], for which, in assay [1], the “immunosuppressive activity compared with lyso GM3 (n=-1)” value is reported as “higher degree of immunosuppressive activity” and the “immunosuppressive activity compared with n = 17 or 23” value is reported as “greater immunosuppressive activity than glycosphingolipids wherein n is 17 or 23”. Also, the “relative immunosuppressive activity (inhibition of human lymphoproliferative response)” value in assay [1] (5 μM) is “highest immunosuppressive activity”. Further, the IC50 in assay [1] (Homo sapiens, Leukocyte, read-out: ID50, inhibition of the human lymphoproliferative response) came out at 0.2 nM. Besides, in assay [2] (Table 1, 2 × 10^5 cells/well, mean ± SD of three cultures), the “[^3 H]thymidine uptake (spontaneous lymphoproliferation)” value worked out at 329 ± 18 cpm. Moreover, in assay [2] (Table 1, GM3 n=1 10 nmol, cyclosporin A 24 mg/kg/dose i.p. × 4 doses), the “lymphocytes (total mononuclear leukocytes recovered from five stimulated popliteal lymph nodes)” value was 1.03 × 10^7. Further, in assay [2] (setting [8]), the “lymph node mass, stimulated” value was 1.84 ± 0.30 mg; the “lymph node mass, net increase” value was 0.56 ± 0.36 mg; the “lymph node mass, unstimulated” value is listed as 1.29 ± 0.24 mg. Besides, the “P, difference in net increase of popliteal nodes between control and GM3 n = 1 treated groups” value in assay [2] (Table 1 footnote) is reported as less than 0.01. The “in vivo immunosuppressive activity compared with mixed human brain gangliosides” value in assay [2] (mouse, in vivo) was “much more active than the mixed brain gangliosides”. For the same compound, the “in vivo immunosuppressive activity compared with cyclosporin A” value in assay [2] (single dose of GM3 n=1, Table 1) is reported as “almost as immunosuppressive as systemically administered cyclosporin A”.

As to `CCCCCCCCCCCCCC=CC(O)C(COC1(C(=O)O)CC(O)C(NC(C)=O)C(C(O)C(O)CO)O1)NC(=O)CCCCCCCCCCCCCCCCC` [βGM5, (2S,3R,4E)-1-O-(5-acetamido-3,5-dideoxy-D-glycero-α- and β-D-galacto-f2-nonulopyranosylonicacid)-2-octadecanamido-4-octadecene-1,3-diol], the “immunosuppressive activity in vitro, in words” value in assay [1] was “potent immunosuppressive agents”. Also, the figures for the “[^3 H] Thymidine Uptake” value in assay [1] (2.5 μM) and in assay [1] (5.0 μM) were 1.4 CPM × 10^-3 and 0.3 CPM × 10^-3, respectively. Further, the inhibition at 2.5 µM in assay [1] (setting [6]) stood at 86%. Besides, the inhibition at 5 µM in assay [1] (setting [6]) was 97%.

With `CCCCCCCCCCCCCC=CC(O)C(COC1OC(CO)C(OC2OC(CO)C(O)C(OC3(C(=O)O)CC(O)C(NC(C)=O)C(C(O)C(O)CO)O3)C2O)C(O)C1O)NC(=O)CCCCCCCCCCCCC` (stereo not drawn) [GM3 d18:1-C14:0], the “[^3 H] Thymidine Uptake” value is listed as 4.6 CPM × 10^-3 in assay [1] (2.5 μM) and 0.8 CPM × 10^-3 in assay [1] (5.0 μM). Also, the inhibition at 2.5 µM in assay [1] (setting [3]) is 53%. Moreover, in assay [1] (setting [4]), the inhibition at 5 µM is 92%.

Source of the values: US5567684A, “Synthetic ganglioside derivatives” (The Regents of The University of California, priority 1994, dated 1996).
